# Results as given in patent US20250204525A1, “ANTIMICROBIAL COMPOSITIONS” (Curie Co. Inc., priority 2023, published 2025).
# Test system: bacterial pool of E. coli, S. aureus, and P. aeruginosa
# Assay: Antibacterial challenge testing of foaming hand soap (Example 2A)
# Assay type: cell-based
# Protocol: For antibacterial challenge testing, one vial each of E. coli, S. aureus, and P. aeruginosa was rehydrated in 1 mL peptone buffer. The concentrations of the cell suspensions were determined based on the Certificates of Analysis accompanying each bacteria vial, and the suspensions were combined and diluted in BPDB to make a 3×10^8 CFU/mL bacterial pool composed of 1×10^8 CFU/mL of each of E. coli, S. aureus, and P. aeruginosa at a final volume of 1 mL. For antifungal challenge testing, one vial of C. albicans was rehydrated in 1 mL peptone buffer. The concentration of the cell suspension was determined based on the Certificate of Analysis accompanying the vial of yeast. The resuspended cells were diluted in BPDB to 3×10^7 CFU/mL at a final volume of 1 mL.
# The enumeration of the microbial population in antibacterial and antifungal challenge testing was performed in the following manner. At day 0, a 3-mL sample was collected from each of the prepared formulations and inoculated with 0.03 mL of the bacterial pool to obtain a final inoculum of 3×10^6 CFU/mL. The inoculated samples were maintained under the same conditions from day 0 to day 7. At each analysis timepoint, the inoculated samples were subjected to 10-fold serial dilutions in BPDB to obtain diluted samples such that 25-250 colonies were estimated to be yielded from 0.1 mL of the diluted sample plated on a tryptic soy agar petri dish containing Polysorbate 80 and Lecithin. The petri dishes were incubated at 31.5+/−1° C. for 24 to 48 hours. The petri dishes were then removed from the incubator and the colonies were counted and multiplied by their corresponding dilution factors to determine the bacterial concentrations (in CFU/mL) of the samples. At day 2 and day 7 post-inoculation, the serial dilutions, plating, and colony counting were repeated to monitor the changes in bacterial population.
# [1] = foaming hand soap pH 6.5, sodium benzoate 0.5% alone
# [2] = foaming hand soap pH 6.5, sodium benzoate 0.5% alone, listed as sodium benzoate
# [3] = foaming hand soap pH 7.0, sodium benzoate 1% alone
# [4] = foaming hand soap pH 7.0, sodium benzoate 1% alone, listed as sodium benzoate
# [5] = foaming hand soap pH 7.5, sodium benzoate 1% alone
# [6] = foaming hand soap pH 8.0, sodium benzoate 1% alone
smiles,measurement,setting,value
"O=C([O-])c1ccccc1.[Na+] [Sodium Benzoate, Sodium benzoate]",Day 2 log reduction in CFU/mL compared to Day 0,[1],0.84 log CFU/mL
same,Day 2 log reduction in CFU/mL compared to Day 0,[2],Modest reductions
same,Day 7 log reduction in CFU/mL compared to Day 0,[1],−1.25 log CFU/mL
same,Day 7 log reduction in CFU/mL compared to Day 0,[2],no reduction
same,Day 2 log reduction in CFU/mL compared to Day 0,[3],0.88 log CFU/mL
same,Day 2 log reduction in CFU/mL compared to Day 0,[4],Modest reductions
same,Day 7 log reduction in CFU/mL compared to Day 0,[3],−1.39 log CFU/mL
same,Day 7 log reduction in CFU/mL compared to Day 0,[4],no reduction
same,Day 2 log reduction in CFU/mL compared to Day 0,[5],−0.62 log CFU/mL
same,Day 7 log reduction in CFU/mL compared to Day 0,[5],−1.23 log CFU/mL
same,Day 7 log reduction in CFU/mL compared to Day 0,"foaming hand soap pH 7.5, sodium benzoate 1% alone, listed as sodium benzoate",no reduction
same,Day 2 log reduction in CFU/mL compared to Day 0,[6],−0.90 log CFU/mL
same,Day 7 log reduction in CFU/mL compared to Day 0,[6],−0.91 log CFU/mL
same,Day 7 log reduction in CFU/mL compared to Day 0,"foaming hand soap pH 8.0, sodium benzoate 1% alone, listed as sodium benzoate",no reduction
